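96-well plates; 48 h exposure; 5 concentrations. Endpoints by linear interpolation between flanking doses. Not reached: highest tested concentration assigned. GI50: concentration for 50% inhibition of growth.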 The source made the active and inactive calls. Cut-off read from the data, not from the text of the source: active = GI50 up to about 1.1 µM and inactive = higher.
Experiments:
Experiment in all cases: inhibition of tumour cell growth, NCI panel, 48 h
OVCAR-4 = tested on: OVCAR-4
CAKI-1 = tested on: CAKI-1
SK-MEL-5 = tested on: SK-MEL-5
SF-268 = tested on: SF-268
DU-145 = tested on: DU-145
NCI/ADR-RES = tested on: NCI/ADR-RES
UO-31 = tested on: UO-31
786-0 = tested on: 786-0
MDA-N = tested on: MDA-N
BT-549 = tested on: BT-549
RXF 393 = tested on: RXF 393
M14 = tested on: M14
SK-MEL-2 = tested on: SK-MEL-2
T47D = tested on: T47D
ACHN = tested on: ACHN
NCI-H522 = tested on: NCI-H522
SNB-75 = tested on: SNB-75
KM12 = tested on: KM12
MDA-MB-435 = tested on: MDA-MB-435
OVCAR-8 = tested on: OVCAR-8

Compound | GI50 (OVCAR-4) | GI50 (CAKI-1) | GI50 (SK-MEL-5) | GI50 (SF-268) | GI50 (DU-145) | GI50 (NCI/ADR-RES) | GI50 (UO-31) | GI50 (786-0) | GI50 (MDA-N) | GI50 (BT-549) | GI50 (RXF 393) | GI50 (M14) | GI50 (SK-MEL-2) | GI50 (T47D) | GI50 (ACHN) | GI50 (NCI-H522) | GI50 (SNB-75) | GI50 (KM12) | GI50 (MDA-MB-435) | GI50 (OVCAR-8)
CN1CCN(C2=CC(=O)c3c(O)ccc(O)c3C2=O)CC1 | 2.02 µM (inactive) | 1.6 µM (inactive) | 0.179 µM (active) | 1.57 µM (inactive) | 1.75 µM (inactive) | 1.04 µM (active) | 1.55 µM (inactive) | 1.95 µM (inactive) | 0.175 µM (active) | 1.76 µM (inactive) | 1.57 µM (inactive) | 0.647 µM (active) | 2.45 µM (inactive) | 0.69 µM (active) | 1.54 µM (inactive) | 1.71 µM (inactive) | 1.61 µM (inactive) | 2.07 µM (inactive) | 0.188 µM (active) | 
O=C(O)CSCC(=O)c1ccccc1 | > 100 µM (inactive) | > 100 µM (inactive) | > 100 µM (inactive) | > 100 µM (inactive) | > 100 µM (inactive) | > 100 µM (inactive) | > 100 µM (inactive) | > 100 µM (inactive) | > 100 µM (inactive) | > 100 µM (inactive) | > 100 µM (inactive) | > 100 µM (inactive) | > 100 µM (inactive) | > 100 µM (inactive) | > 100 µM (inactive) | > 100 µM (inactive) | > 100 µM (inactive) | > 100 µM (inactive) | > 100 µM (inactive) | > 100 µM (inactive)
COc1cc2c3c(c1OC)-c1cc4c(cc1CC3(C#N)N(C(=O)c1ccccc1)CC2)OCO4 (configuration not stated) | 15.3 µM (inactive) | 37.9 µM (inactive) | 29.2 µM (inactive) | 31.6 µM (inactive) | > 100 µM (inactive) | > 60 µM (inactive) | 51.2 µM (inactive) | 29.1 µM (inactive) | > 100 µM (inactive) | > 100 µM (inactive) | 8.73 µM (inactive) | 54.2 µM (inactive) | 46.6 µM (inactive) | > 100 µM (inactive) | 40.4 µM (inactive) | 28.2 µM (inactive) | 9.12 µM (inactive) | > 75.5 µM (inactive) | > 88.5 µM (inactive) | 20.7 µM (inactive)
COC(=O)c1sc2c(c1C(=O)OC)/C(=N/C(C)(C)C)S/C2=N\C(C)(C)C | 17.7 µM (inactive) | 17.2 µM (inactive) | 14.8 µM (inactive) | 19.1 µM (inactive) | 15.5 µM (inactive) | 19.8 µM (inactive) | 0.14 µM (active) | 15 µM (inactive) | 17.9 µM (inactive) | 19 µM (inactive) | 4.02 µM (inactive) | 16.7 µM (inactive) | 17.1 µM (inactive) | 12.2 µM (inactive) | 18.7 µM (inactive) | 18.5 µM (inactive) |  | 16.3 µM (inactive) | 18.4 µM (inactive) | 19.5 µM (inactive)
Cc1c2c(C(N)=O)nccc2c(C)c2c1c1ccccc1n2Cc1ccccc1 | 2.61 µM (inactive) | 17.6 µM (inactive) | 34.8 µM (inactive) | 28.4 µM (inactive) | 27.7 µM (inactive) | 9.75 µM (inactive) | 16.4 µM (inactive) | 3.86 µM (inactive) | 29 µM (inactive) | 29.3 µM (inactive) | 11.9 µM (inactive) | 56.2 µM (inactive) | 18.8 µM (inactive) | 29.2 µM (inactive) | 16.3 µM (inactive) | 23.7 µM (inactive) | 5.33 µM (inactive) | 21.6 µM (inactive) | 33.9 µM (inactive) | 10.6 µM (inactive)
Nc1nccc(NCC2(CO)CC(CCc3ccccc3)C2)n1 (configuration not stated) | 20.7 µM (inactive) | 11.8 µM (inactive) | 4.06 µM (inactive) | > 10 µM (inactive) | 12.4 µM (inactive) | 14.2 µM (inactive) | 12.5 µM (inactive) | 14.6 µM (inactive) | 14.9 µM (inactive) | 21.3 µM (inactive) | 15.6 µM (inactive) |  | 14.5 µM (inactive) | 6.52 µM (inactive) | 13.9 µM (inactive) | 11.8 µM (inactive) | 19.9 µM (inactive) | 17 µM (inactive) | 13.7 µM (inactive) | 18.2 µM (inactive)
CCOC(=O)Cc1nc2c(O)ncnc2n1C1OC(COC(C)=O)C(OC(C)=O)C1OC(C)=O (configuration not stated) | > 100 µM (inactive) | > 100 µM (inactive) | > 100 µM (inactive) | > 100 µM (inactive) | > 100 µM (inactive) | > 100 µM (inactive) | > 100 µM (inactive) | > 100 µM (inactive) | > 100 µM (inactive) | > 100 µM (inactive) | > 100 µM (inactive) | > 100 µM (inactive) | > 100 µM (inactive) | > 100 µM (inactive) | > 100 µM (inactive) | > 100 µM (inactive) | > 100 µM (inactive) | > 100 µM (inactive) | > 100 µM (inactive) | > 100 µM (inactive)

Source: ChEMBL document CHEMBL1201862, “PubChem BioAssay data set” (2004)
